“And” between values parts separate entries of the source, which are not always exact repeats. Equal entries are not always repeated.
How the values were obtained:
SARS-CoV-2 S protein = SARS-CoV-2 S protein (Severe acute respiratory syndrome coronavirus 2, UniProt P0DTC2); assay: cell-based; assay type: cell-based
SARS-CoV S protein = SARS-CoV S protein (Severe acute respiratory syndrome coronavirus, UniProt P59594); assay: cell-based; assay type: cell-based
MERS-CoV S protein = MERS-CoV S protein (Middle East respiratory syndrome-related coronavirus, UniProt K9N5Q8); assay: cell-based; assay type: cell-based
MERS-CoV S protein, sequence (K9N5Q8 18-1353 limits assumed): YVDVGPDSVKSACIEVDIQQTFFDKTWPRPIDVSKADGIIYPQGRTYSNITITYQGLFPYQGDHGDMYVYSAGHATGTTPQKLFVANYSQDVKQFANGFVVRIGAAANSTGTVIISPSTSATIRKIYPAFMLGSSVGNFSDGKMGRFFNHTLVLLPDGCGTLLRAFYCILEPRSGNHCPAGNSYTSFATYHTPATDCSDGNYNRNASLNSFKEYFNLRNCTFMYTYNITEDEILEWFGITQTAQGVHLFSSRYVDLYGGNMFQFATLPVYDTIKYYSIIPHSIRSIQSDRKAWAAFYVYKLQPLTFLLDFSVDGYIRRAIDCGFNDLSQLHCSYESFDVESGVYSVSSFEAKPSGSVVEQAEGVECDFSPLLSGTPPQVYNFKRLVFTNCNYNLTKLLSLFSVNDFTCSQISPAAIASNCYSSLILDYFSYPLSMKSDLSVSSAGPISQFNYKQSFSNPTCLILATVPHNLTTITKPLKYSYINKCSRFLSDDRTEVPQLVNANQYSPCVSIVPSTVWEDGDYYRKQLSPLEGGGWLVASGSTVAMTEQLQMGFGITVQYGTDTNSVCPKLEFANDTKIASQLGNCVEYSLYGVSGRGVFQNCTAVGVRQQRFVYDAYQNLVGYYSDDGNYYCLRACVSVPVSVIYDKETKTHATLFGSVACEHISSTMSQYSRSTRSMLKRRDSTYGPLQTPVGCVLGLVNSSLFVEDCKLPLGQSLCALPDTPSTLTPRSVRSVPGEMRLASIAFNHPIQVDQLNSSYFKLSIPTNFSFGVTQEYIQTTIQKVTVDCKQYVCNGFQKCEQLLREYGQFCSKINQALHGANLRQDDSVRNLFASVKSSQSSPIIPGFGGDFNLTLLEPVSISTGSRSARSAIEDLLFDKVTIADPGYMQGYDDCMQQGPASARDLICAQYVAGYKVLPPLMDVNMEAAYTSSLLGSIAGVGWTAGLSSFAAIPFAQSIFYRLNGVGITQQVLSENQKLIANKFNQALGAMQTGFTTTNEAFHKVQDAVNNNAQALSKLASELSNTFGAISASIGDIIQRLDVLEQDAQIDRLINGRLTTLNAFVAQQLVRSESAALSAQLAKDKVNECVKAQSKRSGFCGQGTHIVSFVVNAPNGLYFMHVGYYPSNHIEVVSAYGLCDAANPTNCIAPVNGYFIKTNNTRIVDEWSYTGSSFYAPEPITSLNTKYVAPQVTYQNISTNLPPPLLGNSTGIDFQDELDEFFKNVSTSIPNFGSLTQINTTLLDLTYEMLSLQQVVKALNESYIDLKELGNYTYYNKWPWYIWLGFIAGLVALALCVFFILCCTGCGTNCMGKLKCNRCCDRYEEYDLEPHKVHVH

HCoV-OC43 S protein = HCoV-OC43 S protein (Human coronavirus OC43, UniProt P36334); assay: cell-based; assay type: cell-based
HCoV-OC43 S protein, sequence (P36334 14-1353 limits assumed): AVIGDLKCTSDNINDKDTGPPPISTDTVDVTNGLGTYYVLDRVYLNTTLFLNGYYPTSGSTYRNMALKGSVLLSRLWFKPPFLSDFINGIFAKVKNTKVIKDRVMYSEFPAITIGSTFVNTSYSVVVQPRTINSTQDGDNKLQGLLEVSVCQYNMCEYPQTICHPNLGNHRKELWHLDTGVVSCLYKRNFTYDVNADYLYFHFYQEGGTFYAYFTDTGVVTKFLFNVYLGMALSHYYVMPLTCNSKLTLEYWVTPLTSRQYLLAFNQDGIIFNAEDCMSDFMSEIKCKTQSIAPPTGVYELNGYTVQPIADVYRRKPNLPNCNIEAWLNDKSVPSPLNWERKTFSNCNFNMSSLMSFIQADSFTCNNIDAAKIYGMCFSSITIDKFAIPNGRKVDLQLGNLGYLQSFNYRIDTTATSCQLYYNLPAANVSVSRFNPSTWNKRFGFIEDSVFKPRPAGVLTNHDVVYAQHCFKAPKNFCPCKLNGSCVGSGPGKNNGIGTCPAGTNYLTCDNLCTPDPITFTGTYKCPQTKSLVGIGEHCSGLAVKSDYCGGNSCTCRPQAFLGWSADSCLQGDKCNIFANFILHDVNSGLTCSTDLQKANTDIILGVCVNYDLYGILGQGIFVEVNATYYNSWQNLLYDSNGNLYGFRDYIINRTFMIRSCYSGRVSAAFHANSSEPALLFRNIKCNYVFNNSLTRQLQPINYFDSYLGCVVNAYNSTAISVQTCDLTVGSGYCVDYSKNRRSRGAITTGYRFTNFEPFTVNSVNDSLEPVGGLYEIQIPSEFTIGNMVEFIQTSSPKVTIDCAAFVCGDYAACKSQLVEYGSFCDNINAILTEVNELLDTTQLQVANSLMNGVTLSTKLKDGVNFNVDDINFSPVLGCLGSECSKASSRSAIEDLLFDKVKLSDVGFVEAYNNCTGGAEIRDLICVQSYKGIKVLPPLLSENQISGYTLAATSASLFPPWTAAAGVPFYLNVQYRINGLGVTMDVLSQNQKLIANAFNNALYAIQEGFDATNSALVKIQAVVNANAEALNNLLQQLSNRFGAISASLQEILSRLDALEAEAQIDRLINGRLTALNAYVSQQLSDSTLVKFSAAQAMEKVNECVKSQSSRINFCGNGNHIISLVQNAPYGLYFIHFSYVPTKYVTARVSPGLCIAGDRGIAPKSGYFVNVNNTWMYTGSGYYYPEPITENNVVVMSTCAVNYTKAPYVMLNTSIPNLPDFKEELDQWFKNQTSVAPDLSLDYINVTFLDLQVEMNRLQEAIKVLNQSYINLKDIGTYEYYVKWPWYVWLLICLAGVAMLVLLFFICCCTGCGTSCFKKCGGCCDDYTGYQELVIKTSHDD

HCoV-OC43 = assay type: in vivo, mice
SARS-2-HR1 = SARS-2-HR1 (Severe acute respiratory syndrome coronavirus 2, UniProt P0DTC2); assay type: binding, SARS-CoV-2
SARS-CoV PsV = details: 72 h
MERS-CoV PsV = details: 72 h
HCoV-OC43 PsV = details: 72 h

`CC[C@H](C)[C@H](NC(=O)[C@H](C)NC(=O)[C@H](CCC(=O)O)NC(=O)[C@H](CCC(=O)O)NC(=O)[C@H](CC(C)C)NC(=O)[C@H](CCCCN)NC(=O)[C@H](CCCCN)NC(=O)[C@H](CCSC)NC(=O)[C@H](CCC(=O)O)NC(=O)[C@H](Cc1ccc(O)cc1)NC(=O)[C@H](CCC(=O)O)NC(=O)[C@H](CC(C)C)NC(=O)[C@H](CC(=O)O)NC(=O)[C@H](CC(C)C)NC(=O)[C@H](Cc1ccccc1)NC(=O)[C@@H](NC(=O)[C@@H](NC(=O)[C@H](CC(N)=O)NC(=O)[C@@H](NC(=O)[C@H](CCC(N)=O)NC(=O)[C@H](CC(=O)O)NC(=O)[C@H](CC(C)C)NC(=O)[C@@H](N)CO)[C@@H](C)CC)C(C)C)[C@@H](C)O)C(=O)N[C@@H](CCCCN)C(=O)N[C@@H](CCCCN)C(=O)N[C@@H](CC(C)C)C(=O)N[C@@H](CCC(=O)O)C(=O)N[C@@H](CCC(=O)O)C(=O)N[C@@H](CO)C(=O)N[C@@H](Cc1ccc(O)cc1)C(=O)N[C@H](C(=O)N[C@@H](CC(=O)O)C(=O)N[C@@H](CC(C)C)C(=O)N[C@@H](CCCCN)C(=O)N[C@@H](CCC(=O)O)C(=O)N[C@@H](CC(C)C)C(=O)NCC(=O)N[C@@H](CO)C(=O)NCC(=O)N[C@@H](CO)C(=O)NCC(=O)NCCOCCOCCOCCOCCC(=O)N[C@@H](CSCC(=O)O[C@H]1CC[C@@]2(C)C(=CC[C@H]3[C@@H]4CC[C@H]([C@H](C)CCCC(C)C)[C@@]4(C)CC[C@@H]32)C1)C(N)=O)[C@@H](C)CC` [EK1C4] was tested, and the “Fold more potent than EK1C1, SARS-CoV-2 S-mediated cell–cell fusion” value (SARS-CoV-2 S protein) was 43 fold, the “Fold more active than EK1, SARS-CoV S-mediated cell–cell fusion” value (SARS-CoV S protein) was “about 94 fold” and the “Fold more potent than EK1, MERS-S-mediated cell–cell fusion” value (MERS-CoV S protein) was 95 fold. The “Fold more potent than EK1, OC43-S-mediated cell–cell fusion” value (HCoV-OC43 S protein) was 101 fold, the “Viral titer in brain, Post-0.5 group” value (HCoV-OC43; 0.5 mg/kg intranasal 0.5 h after challenge, day 5, 5 mice, limit of detection lg2.0 TCID50/g) was “not detected” and the “Brain histopathology, Post-0.5 group” value (HCoV-OC43; 0.5 mg/kg intranasal 0.5 h after challenge, day 5, one mouse) was “no apparent histopathological changes”. The “Brain histopathology, Pre-0.5 group” value (HCoV-OC43; 0.5 mg/kg intranasal 0.5 h before challenge, day 5, one mouse) was “no apparent histopathological changes”, the “Viral titer in brain, Pre-0.5 group” value (HCoV-OC43; 0.5 mg/kg intranasal 0.5 h before challenge, day 5 after infection, 5 mice, limit of detection lg2.0 TCID50/g) was “not detected” and the “Mice with high viral titer detected in brain, Post-2 group” value (HCoV-OC43; 0.5 mg/kg intranasal 2 h after challenge, day 5, 5 mice, limit of detection lg2.0 TCID50/g) was 4 out of 5 mice. For the same compound, the “Viral titer in brain, Pre-2 group” value (HCoV-OC43; 0.5 mg/kg intranasal 2 h before challenge, day 5, 5 mice, limit of detection lg2.0 TCID50/g) was “not detected”, the “Brain histopathology, Pre-2 group” value (HCoV-OC43; 0.5 mg/kg intranasal 2 h before challenge, day 5, one mouse) was “no apparent histopathological changes” and the “Viral titer in brain, Pre-4 group” value (HCoV-OC43; 0.5 mg/kg intranasal 4 h before challenge, day 5, 5 mice, limit of detection lg2.0 TCID50/g) was “not detected”. For the same compound, the “Brain histopathology, Pre-4 group” value (HCoV-OC43; 0.5 mg/kg intranasal 4 h before challenge, day 5, one mouse) was “no apparent histopathological changes”, the “Viral titer in brain, Pre-12 group” value (HCoV-OC43; 0.5 mg/kg intranasal 12 h before challenge, day 5, 5 mice, limit of detection lg2.0 TCID50/g) was “only moderate level of viral titer was detected in brain tissue in one of the 5 mice” and the “Brain histopathology, Pre-12 group” value (HCoV-OC43; 0.5 mg/kg intranasal 12 h before challenge, day 5, one mouse) was “no apparent histopathological changes”. For the same compound, the “Mice with high viral titer detected in brain, Pre-24 group” value (HCoV-OC43; 0.5 mg/kg intranasal 24 h before challenge, day 5, 5 mice, limit of detection lg2.0 TCID50/g) was “all 5 mice”, the “Survival rate, Post-0.5 group” value (HCoV-OC43; newborn mice, intranasal 0.5 mg/kg 0.5 h after HCoV-OC43 infection) was 100% and the “Survival rate, Post-2 group” value (HCoV-OC43; newborn mice, intranasal 0.5 mg/kg 2 h after HCoV-OC43 infection) was 16.7%. The “Final survival rate, Pre-0.5 group” value (HCoV-OC43; newborn mice, single intranasal dose 0.5 mg/kg 0.5 h before HCoV-OC43 challenge (100 TCID50), 14 days) was 100%, the “Final survival rate, Pre-2 group” value (HCoV-OC43; newborn mice, single intranasal dose 0.5 mg/kg 2 h before HCoV-OC43 challenge (100 TCID50), 14 days) was 100% and the “Final survival rate, Pre-4 group” value (HCoV-OC43; newborn mice, single intranasal dose 0.5 mg/kg 4 h before HCoV-OC43 challenge (100 TCID50), 14 days) was 100%. The “Final survival rate, Pre-12 group” value (HCoV-OC43; newborn mice, single intranasal dose 0.5 mg/kg 12 h before HCoV-OC43 challenge (100 TCID50), 14 days) was 83%, the “Final survival rate, Pre-24 group” value (HCoV-OC43; newborn mice, single intranasal dose 0.5 mg/kg 24 h before HCoV-OC43 challenge (100 TCID50), 14 days) was 0% and the “Stability and Tm of complex with SARS-2-HR1 compared with EK1 complex” value (SARS-2-HR1) was “higher stability and increased Tm values”. For the same compound, the “Fold more potent than EK1, SARS-CoV-2 PsV infection” value (SARS-CoV-2 PsV) was ~150 fold and 149 fold, the IC50 (SARS-CoV-2 PsV; PsV, 72 h) was 15.8 nM and the IC50 (SARS-CoV PsV) was 11.7 nM. For the same compound, the IC50 (MERS-CoV PsV) was 11.1 nM, the IC50 (HCoV-OC43 PsV) was 37.7 nM and the “Fold more active than EK1, HCoV-229E PsV infection” value (HCoV-229E PsV) was “about 319 fold”. For the same compound, the IC50 (HCoV-229E PsV; 72 h) was 12.4 nM, the “Fold more active than EK1, HCoV-NL63 PsV infection” value (HCoV-NL63 PsV) was ~99 fold and the IC50 (HCoV-NL63 PsV; 72 h) was 76.6 nM. For the same compound, the “Fold more potent than EK1, WIV1 PsV infection” value (WIV1 PsV) was 175 fold, the IC50 (WIV1 PsV; 72 h) was 30.8 nM and the “Fold more potent than EK1, Rs3367 PsV infection” value (Rs3367 PsV) was 89 fold. The IC50 (Rs3367 PsV; 72 h) was 66.9 nM, the “Fold more active than EK1, live SARS-CoV-2 infection” value (live SARS-CoV-2) was 67 fold and the IC50 (live SARS-CoV-2; live, 72 h) was 36.5 nM. The “Fold more potent than EK1, live MERS-CoV infection” value (live MERS-CoV) was 190 fold, the IC50 (live MERS-CoV; 72 h) was 4.2 nM and the “Fold more potent than EK1, live HCoV-OC43 infection” value (live HCoV-OC43) was 62 fold. The IC50 (live HCoV-OC43; 1 h) was 24.8 nM, the “Fold more potent than EK1, live HCoV-229E infection” value (live HCoV-229E) was 42 fold and the IC50 (live HCoV-229E; 1 h) was 102 nM. For the same compound, the “Fold more potent than EK1, live HCoV-NL63 infection” value (live HCoV-NL63) was 19 fold and the IC50 (live HCoV-NL63; 1 h) was 188 nM.
